molecular target: T1, adenosine A1 receptor (Rattus norvegicus, UniProt P25099); assay: Adenosine Receptor Binding - A1 Receptor Affinity (RBA1), [3H]-CHA displacement; conditions: 1.0 nM [3H]-CHA, rat whole brain membranes, one hour at 25°C; read-out: Receptor Binding RBA—1
T1 construct: brain minus cerebellum and brainstem from male Long Evans rats (150-200 g) was homogenized; from tissue; host or cells: rat whole brain minus cerebellum and brainstem, membrane homogenate
T1 sequence (P25099 1-326): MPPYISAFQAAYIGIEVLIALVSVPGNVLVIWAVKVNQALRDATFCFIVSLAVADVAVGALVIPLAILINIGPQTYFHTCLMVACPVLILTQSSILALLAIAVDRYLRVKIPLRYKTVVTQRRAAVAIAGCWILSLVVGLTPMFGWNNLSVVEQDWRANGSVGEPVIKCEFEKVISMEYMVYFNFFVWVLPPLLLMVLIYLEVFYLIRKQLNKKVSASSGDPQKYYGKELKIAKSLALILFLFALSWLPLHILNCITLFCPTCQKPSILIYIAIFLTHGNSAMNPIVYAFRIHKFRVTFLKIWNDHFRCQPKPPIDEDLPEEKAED
Description: While brain minus cerebellum and brainstem from male Long Evans rats (150-200 g) was homogenized in 30 volumes of ice-cold 0.05 M Tris-CHI buffer pH 7.7 using a Brinkman Polytron PT-10, (setting number 6 for 20 seconds) and centrifuged for ten minutes at 20,000 x g (Sorvall RC-2), 4°C. The supernatant was discarded, and the pellet was resuspended and centrifuged as before. The pellet was resuspended in 20 ml Tris-HCI buffer containing two International Units/ml of adenosine deaminase (Sigma type III from calf intestinal mucosa), incubated at 37°C for 30 minutes, then subsequently at 0°C for ten minutes. The homogenate was again centrifuged, and the final pellet was resuspended in ice-cold 0.05 M Tris-HCI buffer pH 7.7 to a concentration of 20 mg/ml original wet tissue weight and used immediately.
Tissue homogenate (10 mg/ml) was incubated in 0.05 M Tris-HCI buffer pH 7.7 containing 1.0 nM (^3H]-N^e-cyclohexyladenosine ([^3H]-CHA) with or without tests agents in triplicate for one hour at 25°C. Incubation volume was 2 ml. Unbound [^3H]-CHA was separated by rapid filtration under reduced pressure through Whatman glass fiber (GF/B) filters. The filters were rinsed three times with 5 ml of ice cold 0.05 M Tris-HCI buffer pH 7.7. The radio-labeled ligand retained on the filter was measured by liquid scintillation spectrophotometry after shaking the filters for one hour or longer on a mechanical shaker in 10 ml of Beckman Ready-Solv HP scintillation cocktail.
Nonspecific binding was defined as the binding which occurred in the presence of 1 mM theophylline. […] The Scatchard plot was calculated by linear regression of the line obtained by plotting the amount of radioligand bound (pmoles/gram of tissue) [formula] Since the amount of radioligand bound was a small fraction of the total amount added, free radioligand was defined as the concentration (nM) of radioligand added to the incubation mixture. The Hill coefficient was calculated by linear regression of the line obtained by plotting the log of the bound radioligand vs the log of the [formula] The maximal number of binding sites (Bmax) was calculated from the Scatchard plot.

| IC50 | SMILES |
| --- | --- |
| 1010 nM | C[C@H]1O[C@@H](n2cnc3c(NCc4cccc5ccccc45)ncnc32)[C@H](O)[C@@H]1O [Example 20, N^6-α-Naphthylmethyl-5' -deoxyadenosine] |
| 80 nM | O[C@@H]1[C@H](O)[C@@H](CCl)O[C@H]1n1cnc2c(NC3CCc4ccccc43)ncnc21 (stereo partly drawn) [Example 23, (R)-N^6(1-Indanyl)-5'-deoxy-5'-chloroadenosine] |

| SMILES | IC50 |
| --- | --- |
| C[C@H]1O[C@@H](n2cnc3c(NC4CCCc5ccccc54)ncnc32)[C@H](O)[C@@H]1O (stereo partly drawn) [Example 19, N^6-1-Tetralinyl-5' -deoxyadenosine] | 1370 nM |

molecular target: T2, adenosine A2 receptor (Rattus norvegicus, UniProt P30543); assay: Adenosine Receptor Binding - A2 Receptor Affinity (RBA2), [3H]NECA displacement; conditions: 4 nM [3H]NECA with 50 nM N6-cyclopentyladenosine, rat striatal membranes, 60 minutes at 25°C; read-out: Receptor Binding RBA—2
T2 construct: Brains were thawed and then kept on ice while the striata were dissected out; tissue Pel-Freez (Rogers, Arkansas); host or cells: rat striatum, membranes
Description: Brains from 200-500 g mixed sex Sprague-Dawley rats were purchased from Pel-Freez (Rogers, Arkansas). Fresh brains from male Long-Evans hooded rats (Blue Spruce Farms, Altamont, NY) gave essentially indentical results. Brains were thawed and then kept on ice while the striata were dissected out. Striata were disrupted in 10 vol of ice-cold 50 mM Tris.HCI (pH 7.7 at 25°C, pH 8.26 at 5°C) (Tris) for 30 seconds in a Polytron PT―10 (Brinkmann) at setting 5. The suspension was centrifuged at 50,000 xg for ten minutes, the supernatant discarded, the pellet resuspended in 10 vol ice-cold Tris as above, recentrifuged, resuspended at 1 g/5 ml, and stored in plastic vials at -70°C (stable for at least six months). When needed, tissue was thawed at room temperature, disrupted in a Polytron, and kept on ice until used.
All incubations were for 60 minutes at 25°C in 12x75 mm glass tubes containing 1 ml Tris with 5 mg original tissue weight of rat weight of rat striatal membranes, 4 nM [^3H]-N-ethyl adenosine-5'-carboxamide ([^3H]NECA), 50 nM N^6-cyclopentyladenosine (to eliminate A1 receptor binding), 10 mM MgCl2, 0.1 units/ml, of adenosine deaminase and 1% dimethylsulfoxide. N^6-Cyclopentyladenosine was dissolved at 10 mM in 0.02 N HCI and diluted in Tris. Stock solutions and dilutions of N^6-cyclopentyladenosine could be stored at -20°C for several months. Test compounds were dissolved at 10 mM in dimethylsulfoxide or the same day as the experiment, and diluted in dimethylsulfoxide to 100x the final incubation concentration. Control incubations received an equal volume (10 µl) of dimethylsulfoxide; the resulting concentration of dimethylsulfoxide had no effect on binding. [^3H]NECA was diluted to 40 nM in Tris. The membrane suspension (5 mg/0.79 ml) contained sufficient MgCl2 and adenosine deaminase to give 10 mM and 0.1 units/ml, respectively, final concentration in the incubation. […] After all additions, the rack of tubes was vortexed, and the tubes were then incubated for 60 min at 25°C in a shaking water bath. The rack of tubes was vortexed an additonal time halfway through the incubation.
Incubations were terminated by filtration through 2.4 cm GF/B filters under reduced pressure. Each tube was filtered as follows: the contents of the tube were poured onto the filter, 4 ml of ice-cold Tris were added to the tube and the contents poured onto the filter, and the filter was washed twice with 4 ml of ice-cold Tris. The filtration was complete in about twelve seconds. Filters were put in scintillation vials, 8 ml of Formula 947 scintillation fluid added, and the vials left overnight, shaken, and counted in a liquid scintillation counter at 40% efficiency.
Nonspecific binding was defined as binding in the presence of […] N^6-cyclopentyladenosine, and specific binding was defined as total binding minus nonspecific binding. The IC50 was calculated by weighted nonlinear least squares curve-fitting to the mass-action equation. [formula] • where Y is cpm bound T is cpm total binding without drug S is cpm specific binding without drug D is the concentration of drug • and K is the IC50 of the drug Weighting factors were calculated under the assumption that the standard deviation was proportional to the predicted value of Y. Nonspecific binding was treated as a very large (infinite) concentration of drug in the computer analysis.

T2 sequence (P30543 whole entry): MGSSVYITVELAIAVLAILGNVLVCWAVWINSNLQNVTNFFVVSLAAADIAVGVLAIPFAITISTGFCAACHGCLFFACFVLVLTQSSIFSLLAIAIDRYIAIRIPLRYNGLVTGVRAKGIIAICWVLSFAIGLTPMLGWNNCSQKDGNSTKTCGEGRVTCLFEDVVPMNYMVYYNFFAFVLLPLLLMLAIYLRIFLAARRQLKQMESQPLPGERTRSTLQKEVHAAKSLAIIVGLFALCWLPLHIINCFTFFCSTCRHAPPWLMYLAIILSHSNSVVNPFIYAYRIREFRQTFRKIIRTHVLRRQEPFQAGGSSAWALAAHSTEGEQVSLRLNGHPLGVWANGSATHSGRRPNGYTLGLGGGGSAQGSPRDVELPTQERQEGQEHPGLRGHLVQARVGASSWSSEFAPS

| IC50 | SMILES |
| --- | --- |
| 323 nM | C[C@H]1O[C@@H](n2cnc3c(NCc4cccc5ccccc45)ncnc32)[C@H](O)[C@@H]1O [Example 20, N^6-α-Naphthylmethyl-5' -deoxyadenosine] |
| 3040 nM | O[C@@H]1[C@H](O)[C@@H](CCl)O[C@H]1n1cnc2c(NC3CCc4ccccc43)ncnc21 (stereo partly drawn) [Example 23, (R)-N^6(1-Indanyl)-5'-deoxy-5'-chloroadenosine] |

| SMILES | IC50 |
| --- | --- |
| C[C@H]1O[C@@H](n2cnc3c(NC4CCCc5ccccc54)ncnc32)[C@H](O)[C@@H]1O (stereo partly drawn) [Example 19, N^6-1-Tetralinyl-5' -deoxyadenosine] | 71300 nM |

Source: patent EP0181129B1, “N6-substituted deoxyribose analogs of adenosines” (WARNER-LAMBERT COMPANY, priority 1984, dated 1986)
